# Assay results from patent US20190298708A1, “METHODS OF TREATING SUBJECTS WITH AN ELEVATED NEUROFILAMENT LIGHT CHAIN LEVEL” (Coherus Biosciences, Inc., priority 2018, published 2019).
# Key:
# [1] = system: relapsing-remitting multiple sclerosis (RRMS) patients; assay: Correlation of NFL concentration with CE and T2 lesions and EDSS; type: in vivo, human; conditions: after six months of treatment, all groups combined
# Text: Serum Nfl levels were investigated in longitudinal blood samples. The aims of this study include: • to explore the predictive value of blood NFL concentrations in patients treated with CHS-131 (also known as INT-131), • to determine the kinetics of the response to CHS-131, • to analyze NFL as a marker for the effectiveness of CHS-131 in relapsing-remitting multiple sclerosis (RRMS) patients, • to assess the value of NFL concentrations in comparing the effectiveness of CHS-131 with the effectiveness of placebo, • to correlate blood NFL with radiological and clinical outcome parameters (such as magnetic resonance imaging (MRI) (Gd+ lesion counts, T2 lesion volume), annualized relapse rate (ARR), brain atrophy and correlation with expanded disability status scale (EDSS), • to examine the prognostic value of NFL concentrations by stratification of patients related to disease activity, • to determine the risk of relapse or risk of disease progression, and • to evaluate NFL concentrations as a retreatment predictive biomarker. The correlation between NFL concentration and CE and T2 lesions was evaluated after six months of treatment with CHS-131 (all groups combined). […] The correlation between NFL concentration and EDSS was evaluated after six months of treatment with CHS-131 (all groups combined). […] Increased EDSS indicates increased disability, therefore lowering EDSS is considered effective treatment of multiple sclerosis.
# [2] = system: neurofilament light chain (NFL); assay: Blood NFL measurement by Simoa assay in RRMS patients given CHS-131; type: in vivo, human
# Experimental: Capture monoclonal antibody (mAB) 47: 3 is buffer exchanged and diluted to 0.3 mg/mL 4×10^6 paramagnetic beads (Quanterix Corporation) are buffer exchanged and activated using 0.5 mg/mL 1-ethyl-3-(3-dimetylaminopropyl) carbodiimide (Quanterix), followed by a 30-minute incubation at room temperature (HulaMixer, Thermo Fischer Scientific). The diluted capture mAB 47:3 is conjugated with the washed and activated paramagnetic beads for a 2-hour incubation at room temperature on a mixer. After the incubation, the beads are washed three times using a magnetic separator and blocked. Next, the conjugated beads are suspended and stored at 4° C.
# The Simoa assay is run on a Simoa HD-1 instrument (Quanterix) using a two-step Assay Neat 20 protocol. Briefly, 100 μL of calibrator/sample in Tris-buffered saline (TBS), 0.1% Tween 20, 1% milk powder, 400 μg/mL Heteroblock (Omega Biologicals), 25 μL conjugated beads in TBS, 0.1% Tween 20, 1% milk powder, 300 μg/mL Heteroblock, and 20 μL of mAB 2:1 (0.1 μg/mL in TBS, 0.1% Tween 20, 1% milk powder, 300 μg/mL Heteroblock) are incubated for 35 minutes 15 seconds (47 cadences with 1 cadence is 45 seconds). Next, the mixture is washed. Then, 100 μL of streptavidin-conjugated […] (150 pM; Quanterix) is added, followed by a 5 minutes 15 second (7-cadence) incubation and wash. The mixture will then be placed on a Simoa HD-1 instrument. Prior to reading, 25 μL Resorufin (3-D-galactopyranoside (Quanterix) is added. The calibrator curve is constructed using the standard from the NFL ELISA (NF-light, UmanDiagnostics). Samples and calibrators are measured in duplicates.
# Serum Nfl levels were investigated in longitudinal blood samples. The aims of this study include: • to explore the predictive value of blood NFL concentrations in patients treated with CHS-131 (also known as INT-131), • to determine the kinetics of the response to CHS-131, • to analyze NFL as a marker for the effectiveness of CHS-131 in relapsing-remitting multiple sclerosis (RRMS) patients, • to assess the value of NFL concentrations in comparing the effectiveness of CHS-131 with the effectiveness of placebo, • to correlate blood NFL with radiological and clinical outcome parameters (such as magnetic resonance imaging (MRI) (Gd+ lesion counts, T2 lesion volume), annualized relapse rate (ARR), brain atrophy and correlation with expanded disability status scale (EDSS), • to examine the prognostic value of NFL concentrations by stratification of patients related to disease activity, • to determine the risk of relapse or risk of disease progression, and • to evaluate NFL concentrations as a retreatment predictive biomarker.
# All patients receiving CHS-131 were orally adminisntered 1 mg or 3 mg CHS-131 daily. All control patients were orally administered a placebo tablet once a day. All patients enrolled in the study were treatment-naïve RRMS for <3 years.
# The human plasma samples used for the analysis were coded and are not individually identifiable because neither the investigator nor any other individuals associated with the investigation or the sponsor can link the specimen to the subject from whom the specimen was collected, either directly or indirectly through coding systems.
# The concentration of NFL […] in subject administered placebo, 1 mg daily CHS-131, and 3 mg daily CHS-131 are reported in Tables 1, 2, and 3, respectively.
# [3] = 1 mg daily CHS-131 oral, Wk0, RRMS patients
# [4] = 1 mg daily CHS-131 oral, Wk12, RRMS patients
# [5] = 1 mg daily CHS-131 oral, Wk24, RRMS patients
# [6] = 1 mg daily CHS-131 oral, Wk48, RRMS patients
# [7] = 3 mg daily CHS-131 oral, Wk0, RRMS patients
# [8] = 3 mg daily CHS-131 oral, Wk12, RRMS patients
# [9] = 3 mg daily CHS-131 oral, Wk24, RRMS patients
# [10] = 3 mg daily CHS-131 oral, Wk48, RRMS patients
smiles,measurement,setting,value
O=S(=O)(Nc1cc(Cl)c(Oc2cnc3ccccc3c2)c(Cl)c1)c1ccc(Cl)cc1Cl [CHS-131],new CE lesions in subjects with lower average levels of NFL,[1]; FIG. 1,fewer new CE lesions
same,new or enlarging T2 lesions in subjects with lower average levels of NFL,[1]; FIG. 2,fewer new or enlarging T2 lesions
same,EDSS in subjects with lower levels of NFL (trend),[1]; FIG. 3,lower EDSS
same,"concentration of NFL, Max",[2]; [3],29 pg/mL
same,"concentration of NFL, Mean",[2]; [3],20.8 pg/mL
same,"concentration of NFL, Median",[2]; [3],19.4 pg/mL
same,"concentration of NFL, Min",[2]; [3],13.3 pg/mL
same,"concentration of NFL, Q1",[2]; [3],19.3 pg/mL
same,"concentration of NFL, Q3",[2]; [3],22.8 pg/mL
same,"concentration of NFL, Max",[2]; [4],160 pg/mL
same,"concentration of NFL, Mean",[2]; [4],27.6 pg/mL
same,"concentration of NFL, Median",[2]; [4],17.9 pg/mL
same,"concentration of NFL, Min",[2]; [4],2.1 pg/mL
same,"concentration of NFL, Q1",[2]; [4],11.7 pg/mL
same,"concentration of NFL, Q3",[2]; [4],32.2 pg/mL
same,"concentration of NFL, Max",[2]; [5],65.5 pg/mL
same,"concentration of NFL, Mean",[2]; [5],22.3 pg/mL
same,"concentration of NFL, Median",[2]; [5],17 pg/mL
same,"concentration of NFL, Min",[2]; [5],3.2 pg/mL
same,"concentration of NFL, Q1",[2]; [5],11.8 pg/mL
same,"concentration of NFL, Q3",[2]; [5],31.5 pg/mL
same,"concentration of NFL, Max",[2]; [6],340 pg/mL
same,"concentration of NFL, Mean",[2]; [6],27.6 pg/mL
same,"concentration of NFL, Median",[2]; [6],17.5 pg/mL
same,"concentration of NFL, Min",[2]; [6],2.6 pg/mL
same,"concentration of NFL, Q1",[2]; [6],10.1 pg/mL
same,"concentration of NFL, Q3",[2]; [6],24.2 pg/mL
same,"concentration of NFL, Max",[2]; [7],73.7 pg/mL
same,"concentration of NFL, Mean",[2]; [7],29.9 pg/mL
same,"concentration of NFL, Median",[2]; [7],19.6 pg/mL
same,"concentration of NFL, Min",[2]; [7],11.7 pg/mL
same,"concentration of NFL, Q1",[2]; [7],11.8 pg/mL
same,"concentration of NFL, Q3",[2]; [7],48.1 pg/mL
same,"concentration of NFL, Max",[2]; [8],117 pg/mL
same,"concentration of NFL, Mean",[2]; [8],23.2 pg/mL
same,"concentration of NFL, Median",[2]; [8],16.4 pg/mL
same,"concentration of NFL, Min",[2]; [8],4.9 pg/mL
same,"concentration of NFL, Q1",[2]; [8],12.2 pg/mL
same,"concentration of NFL, Q3",[2]; [8],28.1 pg/mL
same,"concentration of NFL, Max",[2]; [9],74.9 pg/mL
same,"concentration of NFL, Mean",[2]; [9],20.4 pg/mL
same,"concentration of NFL, Median",[2]; [9],15.9 pg/mL
same,"concentration of NFL, Min",[2]; [9],5.8 pg/mL
same,"concentration of NFL, Q1",[2]; [9],10.4 pg/mL
same,"concentration of NFL, Q3",[2]; [9],26.6 pg/mL
same,"concentration of NFL, Max",[2]; [10],119 pg/mL
same,"concentration of NFL, Mean",[2]; [10],19.3 pg/mL
same,"concentration of NFL, Median",[2]; [10],14.3 pg/mL
same,"concentration of NFL, Min",[2]; [10],4.9 pg/mL
same,"concentration of NFL, Q1",[2]; [10],9 pg/mL
same,"concentration of NFL, Q3",[2]; [10],20.4 pg/mL
